In PubChem BioAssay AID248 (DTP/NCI, 2004):
Where “and” joins values, the source holds several entries; their conditions need not be identical. Equal values may be shown once. Toxic doses and inconclusive results are not listed. Cut-off read from the data, not from the text of the source: active = T/C of 150% or more; inactive = T/C below 125%.

System: L1210 leukemia ip in BDF1 mice, survival T/C
Assay: NCI In Vivo Anticancer Drug Screen. Data for tumor model L1210 Leukemia (intraperitoneal) in B6D2F1 (BDF1) mice
Details: endpoint: mean survival time, higher = longer survival
Method in brief: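 Antitumor effect is assessed in tumor-bearing animals. Survival in the compound arm is compared with a vehicle-dosed control arm and expressed as their quotient.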

Measured: T/C

COC(=O)[C@@H](O)[C@](O)(CCC(C)C)C(=O)O[C@@H]1C(OC)=C[C@]23CCCN2CCc2cc4c(cc2[C@H]13)OCO4
inactive: dose: 0.12 mg/kg/injection, schedule: Q03HX024 (ip), vehicle: saline 98 % of control | dose: 0.25 mg/kg/injection, schedule: Q01DX009 (ip), vehicle: saline 108 % of control | dose: 0.25 mg/kg/injection, schedule: Q03HX008 (ip), vehicle: saline 106 % of control | dose: 0.25 mg/kg/injection, schedule: Q03HX016 (ip), vehicle: saline 101 % of control | dose: 0.25 mg/kg/injection, schedule: Q03HX024 (ip), vehicle: saline 107 % of control | dose: 0.5 mg/kg/injection, schedule: Q01DX006 (iv), vehicle: saline 100 % of control | dose: 0.5 mg/kg/injection, schedule: Q01DX009 (ip), vehicle: saline 107 % of control | dose: 0.5 mg/kg/injection, schedule: Q01DX009 (oral), vehicle: saline 103 % of control | dose: 0.5 mg/kg/injection, schedule: Q01DX009 (sc), vehicle: saline 104 % of control | dose: 0.5 mg/kg/injection, schedule: Q03HX008 (ip), vehicle: saline 104 % of control | dose: 0.5 mg/kg/injection, schedule: Q03HX016 (ip), vehicle: saline 108 % of control | dose: 0.5 mg/kg/injection, schedule: Q03HX024 (ip), vehicle: saline 100 % of control | dose: 0.93 mg/kg/injection, schedule: Q01DX009 (ip), vehicle: water 106 % of control | dose: 1.0 mg/kg/injection, schedule: Q01DX006 (iv), vehicle: saline 102 % of control | dose: 1.0 mg/kg/injection, schedule: Q01DX009 (ip), vehicle: saline 115 % of control | dose: 1.0 mg/kg/injection, schedule: Q01DX009 (oral), vehicle: saline 93 % of control | dose: 1.0 mg/kg/injection, schedule: Q01DX009 (sc), vehicle: saline 104 % of control | dose: 1.0 mg/kg/injection, schedule: Q03HX008 (ip), vehicle: saline 101 % of control and 106 % of control | dose: 1.0 mg/kg/injection, schedule: Q03HX016 (ip), vehicle: saline 101 % of control and 106 % of control | dose: 1.0 mg/kg/injection, schedule: Q03HX024 (ip), vehicle: saline 100 % of control and 114 % of control | dose: 1.0 mg/kg/injection, schedule: Q04DX003 (ip), vehicle: saline 106 % of control | dose: 1.85 mg/kg/injection, schedule: Q01DX009 (ip), vehicle: water 109 % of control | dose: 1.87 mg/kg/injection, schedule: Q01DX009 (ip), vehicle: water 109 % of control | dose: 1.88 mg/kg/injection, schedule: Q01DX009 (ip), vehicle: water 114 % of control | dose: 2.0 mg/kg/injection, schedule: Q01DX001 (ip), vehicle: saline 102 % of control | dose: 2.0 mg/kg/injection, schedule: Q01DX001 (iv), vehicle: saline 102 % of control | dose: 2.0 mg/kg/injection, schedule: Q01DX001 (oral), vehicle: saline 97 % of control | dose: 2.0 mg/kg/injection, schedule: Q01DX001 (sc), vehicle: saline 104 % of control | dose: 2.0 mg/kg/injection, schedule: Q01DX006 (iv), vehicle: saline 103 % of control and 108 % of control | dose: 2.0 mg/kg/injection, schedule: Q01DX009 (ip), vehicle: saline 107 % of control and 111 % of control | dose: 2.0 mg/kg/injection, schedule: Q01DX009 (oral), vehicle: saline 108 % of control | dose: 2.0 mg/kg/injection, schedule: Q01DX009 (sc), vehicle: saline 106 % of control | dose: 2.0 mg/kg/injection, schedule: Q03HX008 (ip), vehicle: saline 105 % of control and 113 % of control | dose: 2.0 mg/kg/injection, schedule: Q03HX016 (ip), vehicle: saline 96 % of control and 107 % of control | dose: 2.0 mg/kg/injection, schedule: Q03HX024 (ip), vehicle: saline 104 % of control | dose: 2.0 mg/kg/injection, schedule: Q04DX003 (ip), vehicle: saline 106 % of control | dose: 2.0 mg/kg/injection, schedule: Q08DX002 (ip), vehicle: saline 98 % of control | dose: 4.0 mg/kg/injection, schedule: Q01DX001 (ip), vehicle: saline 106 % of control | dose: 4.0 mg/kg/injection, schedule: Q01DX001 (iv), vehicle: saline 101 % of control | dose: 4.0 mg/kg/injection, schedule: Q01DX001 (oral), vehicle: saline 100 % of control | dose: 4.0 mg/kg/injection, schedule: Q01DX001 (sc), vehicle: saline 114 % of control | dose: 4.0 mg/kg/injection, schedule: Q01DX006 (iv), vehicle: saline 103 % of control and 111 % of control | dose: 4.0 mg/kg/injection, schedule: Q01DX009 (ip), vehicle: saline 116 % of control and 124 % of control | dose: 4.0 mg/kg/injection, schedule: Q01DX009 (oral), vehicle: saline 113 % of control and 114 % of control and 120 % of control | dose: 4.0 mg/kg/injection, schedule: Q01DX009 (sc), vehicle: saline 113 % of control | dose: 4.0 mg/kg/injection, schedule: Q03HX008 (ip), vehicle: saline 114 % of control | dose: 4.0 mg/kg/injection, schedule: Q03HX016 (ip), vehicle: saline 103 % of control | dose: 4.0 mg/kg/injection, schedule: Q04DX003 (ip), vehicle: saline 110 % of control and 113 % of control | dose: 4.0 mg/kg/injection, schedule: Q08DX002 (ip), vehicle: saline 108 % of control | dose: 5.0 mg/kg/injection, schedule: Q01DX009 (ip), vehicle: saline 116 % of control | dose: 8.0 mg/kg/injection, schedule: Q01DX001 (ip), vehicle: saline 104 % of control and 105 % of control | dose: 8.0 mg/kg/injection, schedule: Q01DX001 (iv), vehicle: saline 106 % of control and 115 % of control | dose: 8.0 mg/kg/injection, schedule: Q01DX001 (oral), vehicle: saline 100 % of control | dose: 8.0 mg/kg/injection, schedule: Q01DX001 (sc), vehicle: saline 110 % of control and 115 % of control | dose: 8.0 mg/kg/injection, schedule: Q01DX006 (iv), vehicle: saline 120 % of control | dose: 8.0 mg/kg/injection, schedule: Q01DX009 (oral), vehicle: saline 114 % of control | dose: 8.0 mg/kg/injection, schedule: Q01DX009 (sc), vehicle: saline 122 % of control | dose: 8.0 mg/kg/injection, schedule: Q04DX003 (ip), vehicle: saline 101 % of control and 107 % of control | dose: 8.0 mg/kg/injection, schedule: Q08DX002 (ip), vehicle: saline 110 % of control | dose: 10.0 mg/kg/injection, schedule: Q01DX009 (ip), vehicle: saline 116 % of control | dose: 16.0 mg/kg/injection, schedule: Q01DX001 (ip), vehicle: saline 108 % of control and 112 % of control | dose: 16.0 mg/kg/injection, schedule: Q01DX001 (iv), vehicle: saline 106 % of control and 107 % of control | dose: 16.0 mg/kg/injection, schedule: Q01DX001 (oral), vehicle: saline 107 % of control and 112 % of control | dose: 16.0 mg/kg/injection, schedule: Q01DX001 (sc), vehicle: saline 111 % of control and 118 % of control | dose: 16.0 mg/kg/injection, schedule: Q01DX006 (iv), vehicle: saline 122 % of control | dose: 16.0 mg/kg/injection, schedule: Q01DX009 (sc), vehicle: saline 89 % of control | dose: 16.0 mg/kg/injection, schedule: Q04DX003 (ip), vehicle: saline 100 % of control | dose: 16.0 mg/kg/injection, schedule: Q08DX002 (ip), vehicle: saline 106 % of control and 111 % of control | dose: 20.0 mg/kg/injection, schedule: Q01DX009 (ip), vehicle: saline 115 % of control | dose: 32.0 mg/kg/injection, schedule: Q01DX001 (ip), vehicle: saline 110 % of control | dose: 32.0 mg/kg/injection, schedule: Q01DX001 (oral), vehicle: saline 108 % of control and 118 % of control | dose: 32.0 mg/kg/injection, schedule: Q04DX003 (ip), vehicle: saline 107 % of control | dose: 32.0 mg/kg/injection, schedule: Q08DX002 (ip), vehicle: saline 102 % of control

O=S1(=O)CC(c2ccc(Br)cc2)Nc2ccccc21 (stereo not given)
inactive: dose: 100.0 mg/kg/injection, schedule: Q01DX001 (ip), vehicle: saline 98 % of control | dose: 100.0 mg/kg/injection, schedule: Q04DX003 (ip), vehicle: acetone 97 % of control | dose: 200.0 mg/kg/injection, schedule: Q01DX001 (ip), vehicle: saline 101 % of control | dose: 200.0 mg/kg/injection, schedule: Q04DX003 (ip), vehicle: acetone 100 % of control | dose: 400.0 mg/kg/injection, schedule: Q01DX001 (ip), vehicle: saline 98 % of control | dose: 400.0 mg/kg/injection, schedule: Q04DX003 (ip), vehicle: acetone 100 % of control

O=C1CC(C(Cl)(Cl)Cl)O1 (stereo not given)
inactive: dose: 100.0 mg/kg/injection, schedule: Q04DX002 (ip), vehicle: Klucel (hydroxypropylcellulose) (HPC) 89 % of control | dose: 200.0 mg/kg/injection, schedule: Q04DX002 (ip), vehicle: Klucel (hydroxypropylcellulose) (HPC) 92 % of control | dose: 400.0 mg/kg/injection, schedule: Q04DX002 (ip), vehicle: Klucel (hydroxypropylcellulose) (HPC) 106 % of control

CCCCCCCCN1CCC(c2cccc(O)c2)C(C(=O)CC)C1 (stereo not given)
inactive: dose: 6.0 mg/kg/injection, schedule: Q01DX009 (ip), vehicle: Klucel (hydroxypropylcellulose) (HPC) 94 % of control and 102 % of control | dose: 12.0 mg/kg/injection, schedule: Q01DX009 (ip), vehicle: Klucel (hydroxypropylcellulose) (HPC) 94 % of control | dose: 50.0 mg/kg/injection, schedule: Q01DX009 (ip), vehicle: Klucel (hydroxypropylcellulose) (HPC) 87 % of control
